From ChEMBL document CHEMBL1145925, “Carbonic anhydrase inhibitors: inhibition of transmembrane, tumor-associated isozyme IX, and cytosolic isozymes I and II with aliphatic sulfamates” (J Med Chem, 2003)
Where “and” joins values, the source holds several entries; their conditions need not be identical. Equal entries are not always repeated.

Key:
[1] = target: Carbonic anhydrase 9 (Homo sapiens, UniProt Q16790)
[2] = target: Carbonic anhydrase 1 (Homo sapiens, UniProt P00915)
[3] = target: Carbonic anhydrase 2 (Homo sapiens, UniProt P00918)

Carbonic anhydrase 1, sequence (P00915 whole entry): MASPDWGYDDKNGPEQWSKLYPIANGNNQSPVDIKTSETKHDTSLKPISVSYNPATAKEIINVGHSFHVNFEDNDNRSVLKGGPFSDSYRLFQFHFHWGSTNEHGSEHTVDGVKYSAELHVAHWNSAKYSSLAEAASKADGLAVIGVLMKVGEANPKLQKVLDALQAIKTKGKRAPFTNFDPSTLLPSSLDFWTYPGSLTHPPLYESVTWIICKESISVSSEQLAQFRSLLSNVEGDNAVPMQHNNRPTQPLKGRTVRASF

Row | Structure (SMILES) | Ki [1] | Ki [2] | Ki [3]
1 | NS(=O)(=O)OCc1ccc(-c2ccccc2)cc1 | > 1 µM | > 1000 µM | –
2 | CCCCCCCCCCCOS(N)(=O)=O [SULFAMIC ACID UNDECYL ESTER] | 0.017 µM | 0.43 µM | 0.0047 µM
3 | CCCCCCCCCCCCCCCCOS(N)(=O)=O [SULFAMIC ACID HEXADECYL ESTER] | – | 58 µM | 0.097 µM
4 | NS(=O)(=O)OC(C(F)(F)F)C(F)(F)F | 0.279 µM | 3.54 µM | 1.58 µM
5 | COS(N)(=O)=O [SULFAMIC ACID METHYL ESTER] | > 1 µM | 40 µM | 6 µM
6 | CC(C)OS(N)(=O)=O [SULFAMIC ACID ISOPROPYL ESTER] | > 1 µM | 690 µM | > 10 µM
7 | NS(=O)(=O)OCc1ccccc1 [SULFAMIC ACID BENZYL ESTER] | 0.014 µM | 0.76 µM | 0.0034 µM
8 | CCCCCCCCCCOS(N)(=O)=O [DECYL SULFAMATE] | 0.023 µM and 0.142 µM | – | –
9 | C[C@]12CCC(OS(N)(=O)=O)CC1=CC(=O)C1C2CC[C@]2(C)C(=O)CCC12 (stereo partly specified) | 0.076 µM | 0.41 µM | 0.023 µM
10 | NS(=O)(=O)OCC1c2ccccc2-c2ccccc21 | > 1 µM | 38 µM | 4.5 µM
11 | C[C@]12CCC(OS(N)(=O)=O)CC1=C[C@@H](O)C1C2CC[C@]2(C)C(=O)CCC12 (stereo partly specified) | 0.065 µM | 0.4 µM | 0.013 µM
12 | CC(C)CCC[C@@H](C)[C@H]1CCC2C3CC=C4C[C@@H](OS(N)(=O)=O)CC[C@]4(C)C3CCC21 (stereo partly specified) | > 1 µM | > 1000 µM | > 10 µM
13 | NS(=O)(=O)OC1CCCCC1 [SULFAMIC ACID CYCLOHEXYL ESTER] | > 1 µM | 59 µM | 0.06 µM
14 | C=CCCOS(N)(=O)=O | 0.386 µM | 800 µM | 0.883 µM
15 | NS(=O)(=O)OCC(F)(F)F | 0.458 µM | 7.8 µM | 0.845 µM
16 | CCCOS(N)(=O)=O [SULFAMIC ACID PROPYL ESTER] | > 1 µM | 3.7 µM | 0.75 µM
17 | CCOS(N)(=O)=O [SULFAMIC ACID ETHYL ESTER] | > 1 µM | 38 µM | 5.5 µM
18 | CCCCCCCCCCCCOS(N)(=O)=O [SULFAMIC ACID DODECYL ESTER] | 0.009 µM | 0.27 µM | 0.01 µM
19 | NS(=O)(=O)OCCCCl | > 1 µM | 4.62 µM | 0.57 µM
20 | CCCCCCCCCCCCCCOS(N)(=O)=O [SULFAMIC ACID TETRADECYL ESTER] | 0.015 µM | 0.15 µM | 0.087 µM
21 | CCCCCCCCCCCCCCCCCCOS(N)(=O)=O [SULFAMIC ACID OCTADECYL ESTER] | 0.12 µM | 65 µM | 0.129 µM
22 | NS(=O)(=O)OCCc1ccccc1 [SULFAMIC ACID PHENETHYL ESTER] | 0.012 µM | 0.41 µM | 0.0011 µM
23 | CCCCCOS(N)(=O)=O [SULFAMIC ACID PENTYL ESTER] | – | 0.71 µM | 0.058 µM
24 | C#CCCOS(N)(=O)=O | 0.633 µM | 990 µM | 5.9 µM
25 | CCCCOS(N)(=O)=O [SULFAMIC ACID BUTYL ESTER] | > 1 µM | 3.1 µM | 0.07 µM
26 | Cc1ccc(COS(N)(=O)=O)cc1 | 0.013 µM | 0.1 µM | 0.0027 µM
27 | NS(=O)(=O)OC1CCCC1 [SULFAMIC ACID CYCLOPENTYL ESTER] | > 1 µM | > 1000 µM | > 10 µM
